Assay results as given in paper PMC10458514, “Structure–Activity Relationship Studies on 6-Chloro-1-phenylbenzazepines Leads to the Identification of a New Dopamine D1 Receptor Antagonist” (Molecules, 2023).
Values joined by “and” are separate entries in the source; they are usually repeats but may differ in a detail not shown here. Equal entries are not always repeated. Where two headings read alike, the source gives them in different places.

Assays:
[1] = target: T1, D1R (dopamine D1 receptor) (Homo sapiens, UniProt P21728); test: biochemical; conditions: [3H]SCH23390 radioligand, triplicate, na = not active (<50% inhibition in a primary assay when tested at 10 µM)
[2] = target: T1, D1R (dopamine D1 receptor); conditions: for Selectivity D5/D1: ratio of Ki D5R to Ki D1R
[3] = target: T2, D5R (dopamine D5 receptor) (Homo sapiens, UniProt P21918); test: biochemical; conditions: [3H]SCH23390 radioligand, triplicate, na = not active (<50% inhibition in a primary assay when tested at 10 µM)
D1R [4] = target: T3, D1R (Homo sapiens, UniProt P21728); test: D1R cAMP functional assay, antagonist format (Eurofins DiscoverX HitHunter); assay type: cell-based; conditions: antagonist mode; for Max Response, antagonist format: agonist challenge at EC80, in % (unit assumed)
T3 construct: Eurofins Discover X
Experimental: (§1) In the agonist format, cells were first incubated with sample to induce a response. Then, the media was aspirated from the cells and replaced with 15 μL 2:1 HBSS/10 mM Hepes: cAMP XS + Ab reagent. Sample stocks were diluted to generate 4X sample in assay buffer. […] The final assay concentration used was 1%. In antagonist mode, the cells were pre-incubated with a sample followed by agonist challenge at the EC80 concentration. The media was aspirated from cells and replaced with 10 μL 2:1 HBSS/10 mM Hepes: cAMP XS + Ab reagent. […] For agonist and antagonist assays, signal detection was performed as follows. […] This was followed by incubation with 20 μL cAMP XS + EA reagent for 3 h at room temperature. The microplates were read following signal generation with a PerkinElmer Envision™ instrument for chemiluminescent signal detection.

D1R [5] = target: T3, D1R; test: D1R cAMP functional assay, agonist format (Eurofins DiscoverX HitHunter); assay type: cell-based; conditions: agonist mode
Experimental: as §1

D5R = conditions: cited from earlier work
D1R [6] = target: T3, D1R; conditions: cited from earlier work
[7] = target: T2, D5R (dopamine D5 receptor); conditions: read-out: Ki D5R; [3H]SCH23390 radioligand; triplicate; na = not active (<50% inhibition in a primary assay when tested at 10 µM)
[8] = [3H]SCH23390 radioligand, triplicate, na = not active (<50% inhibition in a primary assay when tested at 10 µM)

T3 sequence (P21728 whole entry): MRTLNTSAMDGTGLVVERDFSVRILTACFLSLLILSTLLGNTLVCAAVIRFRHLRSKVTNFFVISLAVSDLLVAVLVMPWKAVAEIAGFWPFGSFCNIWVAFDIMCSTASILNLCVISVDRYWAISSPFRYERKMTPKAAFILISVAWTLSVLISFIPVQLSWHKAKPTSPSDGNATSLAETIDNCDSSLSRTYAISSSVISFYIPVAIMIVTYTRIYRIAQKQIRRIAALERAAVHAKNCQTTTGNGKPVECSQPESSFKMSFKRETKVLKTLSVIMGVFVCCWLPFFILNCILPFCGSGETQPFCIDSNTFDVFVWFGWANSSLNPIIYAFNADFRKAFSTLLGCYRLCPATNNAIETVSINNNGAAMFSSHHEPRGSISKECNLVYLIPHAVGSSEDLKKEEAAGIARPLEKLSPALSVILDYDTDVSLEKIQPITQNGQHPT
T1 sequence (P21728 whole entry): as above
T2 sequence (P21918 whole entry): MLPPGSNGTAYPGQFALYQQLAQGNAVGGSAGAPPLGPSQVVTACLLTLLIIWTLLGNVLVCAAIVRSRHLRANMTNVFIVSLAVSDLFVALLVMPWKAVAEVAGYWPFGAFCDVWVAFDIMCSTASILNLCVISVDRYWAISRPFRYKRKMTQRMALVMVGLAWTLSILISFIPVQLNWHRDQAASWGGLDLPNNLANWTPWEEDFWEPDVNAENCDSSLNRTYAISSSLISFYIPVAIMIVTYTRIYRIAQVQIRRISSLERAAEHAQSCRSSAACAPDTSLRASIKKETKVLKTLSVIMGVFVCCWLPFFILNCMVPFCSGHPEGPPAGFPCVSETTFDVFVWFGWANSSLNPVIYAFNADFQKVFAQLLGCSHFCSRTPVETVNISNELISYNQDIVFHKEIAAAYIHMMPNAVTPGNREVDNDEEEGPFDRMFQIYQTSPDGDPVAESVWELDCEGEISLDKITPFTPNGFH

Molecule | melting point | Ki [1] | other results
COc1ccc2c(c1Cl)CCN(C)CC2c1cccc(C)c1 (centres unmarked) [Compound 13b, 6-chloro-7-methoxy-3-methyl-1-(m-tolyl)-2,3,4,5-tetrahydro-1H-benzo[d]azepine] | 174.5 to 176.1 °C |  | 
C=CCN1CCc2c(ccc(O)c2Cl)C(c2cccc(C)c2)C1 (centres unmarked) [Compound 14b, 3-allyl-6-chloro-1-(m-tolyl)-2,3,4,5-tetrahydro-1H-benzo[d]azepin-7-ol] | 151.3 to 152.7 °C | 281 nM | Selectivity D5/D1 [2]: 2.6; Ki [3]: 741 ± 12.5 nM
Cc1cccc(C2CN(C)CCc3c2cc([N+](=O)[O-])c(O)c3Cl)c1 (centres unmarked) [Compound 16b, 6-chloro-3-methyl-8-nitro-1-(m-tolyl)-2,3,4,5-tetrahydro-1H-benzo[d]azepin-7-ol] | 210.4 to 212.6 °C | 4350 nM | 
C=CCN1CCc2c(ccc(O)c2Cl)C(c2ccc(O)cc2)C1 (centres unmarked) [Compound 14d, 3-allyl-6-chloro-1-(4-hydroxyphenyl)-2,3,4,5-tetrahydro-1H-benzo[d]azepin-7-ol] | 132.5 to 134.1 °C |  | Ki D1R [2, 8]: no affinity
C=CCN1CCc2c(ccc(OC)c2Cl)C(c2ccc(OC)cc2)C1 (centres unmarked) [Compound 12c, 3-allyl-6-chloro-7-methoxy-1-(4-methoxyphenyl)-2,3,4,5-tetrahydro-1H-benzo[d]azepine] | 155.4 to 157.1 °C |  | 
Cc1cccc(C2CNCCc3c2ccc(O)c3Cl)c1 (centres unmarked) [Compound 11b, 6-chloro-1-(m-tolyl)-2,3,4,5-tetrahydro-1H-benzo[d]azepin-7-ol] | 122.3 to 124.2 °C |  | Ki D1R [2, 8]: no affinity
CN1CCc2cc(Cl)c(O)cc2[C@H]2c3ccccc3CC[C@@H]21 [SCH 39166, reference compound] |  |  | Max Response, antagonist format (D1R [4]): 102.24
C=CCN1CCc2c(ccc(O)c2Cl)C(c2ccccc2)C1 (centres unmarked) [Compound 14a] |  | 102 ± 5.2 nM | Selectivity D5/D1 [2]: 2.9; Ki [3]: 297 ± 19.3 nM
CN1CCc2c(ccc(O)c2Cl)C(c2ccccc2)C1 (centres unmarked) [Compound 15a, 6-chloro-3-methyl-1-phenyl-2,3,4,5-tetrahydro-1H-benzo[d]azepin-7-ol] | 143.5 to 145.1 °C | 30 nM and 30.1 nM | RC50 (EC50), agonist format (D1R [5]): No D1R agonistic activity; Max Response, agonist format (D1R [5]; in % (unit assumed)): 17.22; EC50 (D1R [5]; read-out: RC50 (EC50), agonist format): > 10000 nM; Selectivity D5/D1 [2]: 6 and 6.2; Ki [3]: 187 nM; Max Response, antagonist format (D1R [4]): 66.12; IC50 (D1R [4]; agonist challenge at EC80, read-out: RC50 (IC50), antagonist format): 130 nM
CN1CCc2c(cc([N+](=O)[O-])c(O)c2Cl)C(c2ccccc2)C1 (centres unmarked) [Compound 16a, 6-chloro-3-methyl-8-nitro-1-phenyl-2,3,4,5-tetrahydro-1H-benzo[d]azepin-7-ol] | 198.7 to 200 °C |  | Ki D1R [2, 8]: no affinity
C=CCN1CCc2c(cc(O)c(O)c2Cl)C(c2cccc(C)c2)C1 (centres unmarked) [SKF 83822] |  |  | Ki (D5R): 0.3 nM; Ki (D1R [6]): 0.2 nM
Cc1cccc(C2CN(C)CCc3c2ccc(O)c3Cl)c1 (centres unmarked) [Compound 15b, 6-chloro-3-methyl-1-(m-tolyl)-2,3,4,5-tetrahydro-1H-benzo[d]azepin-7-ol] | 142.6 to 144 °C | 78 nM and 77.9 nM | Selectivity D5/D1 [2]: 2.1; Ki [3]: 165 ± 4.9 nM
COc1ccc2c(c1Cl)CCNCC2c1cccc(C)c1 (centres unmarked) [Compound 10b, 6-chloro-7-methoxy-1-(m-tolyl)-2,3,4,5-tetrahydro-1H-benzo[d]azepine] | 180.4 to 181.8 °C |  | 
N-(9-chloro-8-hydroxy-3-methyl-5-phenyl-2,3,4,5-tetrahydro-1H-benzo[d]azepin-7-yl)methanesulfonamide [Compound 22] |  |  | Selectivity D5/D1 [2]: 1.5; Ki ([2]; read-out: Ki D1R, [3H]SCH23390 radioligand, triplicate, na = not active (<50% inhibition in a primary assay when tested at 10 µM)): 113 nM and 114 nM; Ki [7]: 166 ± 6.8 nM
Oc1ccc2c(c1Cl)CCNCC2c1ccccc1 (centres unmarked) [Compound 11a, 6-chloro-1-phenyl-2,3,4,5-tetrahydro-1H-benzo[d]azepin-7-ol] | 134.6 to 135.8 °C |  | Ki D1R [2, 8]: no D1R affinity; Ki [3]: 470 nM
Oc1ccc(C2CNCCc3c2ccc(O)c3Cl)cc1 (centres unmarked) [Compound 11d, 6-chloro-1-(4-hydroxyphenyl)-2,3,4,5-tetrahydro-1H-benzo[d]azepin-7-ol] | 135.8 to 136.9 °C |  | Ki D1R [2, 8]: did not bind to D1R
Cc1cccc(C2CNCCc3c2cc([N+](=O)[O-])c(O)c3Cl)c1 (centres unmarked) [Compound 24b, 6-chloro-8-nitro-1-(m-tolyl)-2,3,4,5-tetrahydro-1H-benzo[d]azepin-7-ol] | 188.9 to 191.2 °C | 38 nM and 38.1 nM | Selectivity D5/D1 [2]: 2.6; Ki [3]: 97.9 ± 3.6 nM
CN1CCc2c(ccc(O)c2Cl)C(c2ccc(O)cc2)C1 (centres unmarked) [Compound 15d] |  | 161 nM | Selectivity D5/D1 [2]: 2.6; Ki [3]: 413 ± 9.8 nM
COc1ccc(C2CNCCc3c2ccc(OC)c3Cl)cc1 (centres unmarked) [Compound 10c, 6-chloro-7-methoxy-1-(4-methoxyphenyl)-2,3,4,5-tetrahydro-1H-benzo[d]azepine] | 151.3 to 152.7 °C |  | 
COc1ccc2c(c1Cl)CCNCC2c1ccccc1 (centres unmarked) [Compound 10a, 6-chloro-7-methoxy-1-phenyl-2,3,4,5-tetrahydro-1H-benzo[d]azepine] | 156.4 to 158 °C |  | 
COc1ccc(C2CN(C)CCc3c2ccc(OC)c3Cl)cc1 (centres unmarked) [Compound 13c, 6-chloro-7-methoxy-1-(4-methoxyphenyl)-3-methyl-2,3,4,5-tetrahydro-1H-benzo[d]azepine] | 155.4 to 157.1 °C |  | 
C=CCN1CCc2c(ccc(OC)c2Cl)C(c2cccc(C)c2)C1 (centres unmarked) [Compound 12b, 3-allyl-6-chloro-7-methoxy-1-(m-tolyl)-2,3,4,5-tetrahydro-1H-benzo[d]azepine] | 172.1 to 173.8 °C |  | 

More lines, main results first:

melting point | Ki [1] | Molecule | other results
156.2 to 157.9 °C | 634 ± 12.5 nM | CCCC(=O)Nc1cc2c(c(Cl)c1O)CCN(C)CC2c1cccc(C)c1 (centres unmarked) [Compound 19b, N-(9-chloro-8-hydroxy-3-methyl-5-(m-tolyl)-2,3,4,5-tetrahydro-1H-benzo[d]azepin-7-yl)butyramide] | Selectivity D5/D1 [2]: 4.7; Ki [3]: 2960 ± 29.6 nM
148.7 to 150.1 °C | 1970 ± 41.4 nM | CCCC(=O)Nc1cc2c(c(Cl)c1O)CCN(C)CC2c1ccccc1 (centres unmarked) [Compound 19a, N-(9-chloro-8-hydroxy-3-methyl-5-phenyl-2,3,4,5-tetrahydro-1H-benzo[d]azepin-7-yl)butyramide] | 
151.6 to 152.8 °C | 1360 ± 14 nM | CC(=O)Nc1cc2c(c(Cl)c1O)CCN(C)CC2c1cccc(C)c1 (centres unmarked) [Compound 18b, N-(9-chloro-8-hydroxy-3-methyl-5-(m-tolyl)-2,3,4,5-tetrahydro-1H-benzo[d]azepin-7-yl)acetamide] | 
141 to 142.1 °C | 1762 ± 17.6 nM | CN1CCc2c(cc(NC(N)=O)c(O)c2Cl)C(c2ccccc2)C1 (centres unmarked) [Compound 23a, 1-(9-chloro-8-hydroxy-3-methyl-5-phenyl-2,3,4,5-tetrahydro-1H-benzo[d]azepin-7-yl)urea] | 
161.4 to 163.1 °C | 1500 ± 18.9 nM | C=CC(=O)Nc1cc2c(c(Cl)c1O)CCN(C)CC2c1ccccc1 (centres unmarked) [Compound 21a, N-(9-chloro-8-hydroxy-3-methyl-5-phenyl-2,3,4,5-tetrahydro-1H-benzo[d]azepin-7-yl)acrylamide] | 
 | 4980 ± 61.3 nM | C=CC(=O)Nc1cc2c(c(Cl)c1O)CCN(C)CC2c1cccc(C)c1 (centres unmarked) [Compound 21b] | 
184.6 to 186.1 °C |  | Cc1cccc(C2CN(C)CCc3c2cc(NC(N)=O)c(O)c3Cl)c1 (centres unmarked) [Compound 23b, 1-(9-chloro-8-hydroxy-3-methyl-5-(m-tolyl)-2,3,4,5-tetrahydro-1H-benzo[d]azepin-7-yl)urea] | 
201.4 to 202.8 °C |  | O=[N+]([O-])c1cc2c(c(Cl)c1O)CCNCC2c1ccccc1 (centres unmarked) [Compound 24a, 6-chloro-8-nitro-1-phenyl-2,3,4,5-tetrahydro-1H-benzo[d]azepin-7-ol] | Ki D1R [2, 8]: no affinity
134.8 to 136 °C | 72 nM and 71.9 nM | Cc1cccc(C2CN(C)CCc3c2cc(N)c(O)c3Cl)c1 (centres unmarked) [Compound 17b, 8-amino-6-chloro-3-methyl-1-(m-tolyl)-2,3,4,5-tetrahydro-1H-benzo[d]azepin-7-ol] | Selectivity D5/D1 [2]: 2.0; Ki [3]: 146 ± 5.8 nM
154.4 to 156.2 °C |  | CC(=O)Nc1cc2c(c(Cl)c1O)CCN(C)CC2c1ccccc1 (centres unmarked) [Compound 18a, N-(9-chloro-8-hydroxy-3-methyl-5-phenyl-2,3,4,5-tetrahydro-1H-benzo[d]azepin-7-yl)acetamide] | 
137 to 138.9 °C | 210 nM | CN1CCc2c(cc(N)c(O)c2Cl)C(c2ccccc2)C1 (centres unmarked) [Compound 17a, 8-amino-6-chloro-3-methyl-1-phenyl-2,3,4,5-tetrahydro-1H-benzo[d]azepin-7-ol] | Selectivity D5/D1 [2]: 1.3; Ki [3]: 270 ± 8.4 nM
144.6 to 145.9 °C | 2940 ± 36.2 nM | CC(C)C(=O)Nc1cc2c(c(Cl)c1O)CCN(C)CC2c1ccccc1 (centres unmarked) [Compound 20a, N-(9-chloro-8-hydroxy-3-methyl-5-phenyl-2,3,4,5-tetrahydro-1H-benzo[d]azepin-7-yl)isobutyramide] | 
